Data on four compounds can be found in US20240310368A1, “DETECTION KIT FOR CATECHOLAMINES AND METABOLITES THEREOF IN PLASMA/URINE AND DETECTION METHOD THEREOF” (Calibra Scientific, Inc., priority 2023, published 2024).

Series [1] can be described thus: Stabilizing effect of accelerated stabilizers (37° C., 14 days) on plasma samples then accelerated at 30° C. for 1.5 days. Conditions: for Relative deviation %: Accelerate vs Control; for concentration in plasma samples, Control / concentration in plasma samples, Accelerate: single replicates; for concentration in plasma samples, Accelerate: stabilizer accelerated 37° C. 14 days, plasma then accelerated at 30° C. for 1.5 days. Type of series: physicochemical, human. As to the method:
(§1) In the present example, the stabilizing effect of the stabilizers on plasma samples, standard products and quality control products after acceleration was further verified. The stabilizers were accelerated at 37° C. for 14 days (equivalent to 1 year at 2-8° C.), added into the plasma samples in proportions and then accelerated at 30° C. for 1.5 days (equivalent to 12 months at −30° C. to −15° C.). The stabilizers were accelerated at 37° C. for 14 days (equivalent to 1 year at 2-8° C.), added into the standard products and the quality control products in proportions and then accelerated at 30° C. for 2 days (equivalent to 18 months at −30° C. to −15° C.).

Series [2] in a line: Stabilizing effect of accelerated stabilizers (37° C., 14 days) on standard products and quality control products then accelerated at 30° C. for 2 days. In kind it is physicochemical. Conditions: for Relative deviation %: 2 days at 30° C. vs Control; for concentration in standard products and quality control products, 2 days at 30° C. / concentration in standard products and quality control products, Control: single replicates. As to the method:
Standard products of epinephrine, norepinephrine, dopamine, metanephrine, normetanephrine and 3-methoxytyramine were prepared into mixed solutions, and blank plasma containing a stabilizer was used as a matrix to prepare standard products and quality control products.
as §1

[3] abbreviates: samples at a high concentration level.
[4] abbreviates: samples at a low concentration level.

“And” between values parts separate entries of the source, which are not always exact repeats. Equal values may be shown once.

On to `COc1cc(C(O)CN)ccc1O` (stereo not drawn) [NMN], for which, in series [1] (setting [3]), the Relative deviation % was found to be 2.1%; the “concentration in plasma samples, Control” value was 0.97087 ng/mL and 0.85456 ng/mL and 0.85498 ng/mL; the “concentration in plasma samples, Accelerate” value (“concentration … Accelerate” below) was 0.91096 ng/mL and 0.88464 ng/mL and 0.94153 ng/mL. In addition, in series [1] (setting [4]), the Relative deviation % was determined as 1.7%; the “concentration in plasma samples, Control” value is 0.17577 ng/mL and 0.16472 ng/mL and 0.17242 ng/mL; the “concentration … Accelerate” value was 0.17659 ng/mL and 0.17047 ng/mL and 0.17436 ng/mL. Moreover, in series [2] (High concentration level), the Relative deviation % is recorded as −3.68%; the “average concentration, 2 days at 30° C.” value turned out to be 1910.2 pg/mL; the “concentration in standard products and quality control products, 2 days at 30° C.” value was 1.89388 ng/mL and 1.85479 ng/mL and 1.98193 ng/mL; the “average concentration, Control” value came out at 1983.21 pg/mL. For the same compound, the “concentration in standard products and quality control products, Control” value in series [2] (High concentration level) is 2.00785 ng/mL and 1.95209 ng/mL and 1.98969 ng/mL. In series [2] (Low concentration level), the Relative deviation % is recorded as 1.41%; the “average concentration, 2 days at 30° C.” value was 24.2 pg/mL; the “concentration in standard products and quality control products, 2 days at 30° C.” value was 0.02503 ng/mL and 0.02506 ng/mL and 0.0225 ng/mL; the “average concentration, Control” value is 23.86 pg/mL. Also, in series [2] (Low concentration level), the “concentration in standard products and quality control products, Control” value is 0.02255 ng/mL and 0.02588 ng/mL and 0.02315 ng/mL. Besides, in series [2] (Medium concentration level), the Relative deviation % is given as 1.5%; the “average concentration, 2 days at 30° C.” value is recorded as 405.18 pg/mL; the “concentration in standard products and quality control products, 2 days at 30° C.” value is 0.39387 ng/mL and 0.42435 ng/mL and 0.39731 ng/mL; the “average concentration, Control” value amounted to 399.18 pg/mL. Moreover, the “concentration in standard products and quality control products, Control” value in series [2] (Medium concentration level) was 0.39333 ng/mL and 0.41828 ng/mL and 0.38593 ng/mL.
As for `NC[C@H](O)c1ccc(O)c(O)c1` [NE], in series [1] (setting [3]), the Relative deviation % is recorded as −7.1%; the “concentration in plasma samples, Control” value is 1.73055 ng/mL and 1.84024 ng/mL and 1.88485 ng/mL; the “concentration … Accelerate” value was 1.79476 ng/mL and 1.56875 ng/mL and 1.70297 ng/mL. In addition, in series [1] (setting [4]), the Relative deviation % is given as −2.5%; the “concentration in plasma samples, Control” value was 0.27092 ng/mL and 0.2617 ng/mL and 0.26601 ng/mL; the “concentration … Accelerate” value was 0.26432 ng/mL and 0.25764 ng/mL and 0.25636 ng/mL. Besides, in series [2] (High concentration level), the Relative deviation % was determined as 0.32%; the “average concentration, 2 days at 30° C.” value stood at 4998.13 pg/mL; the “concentration in standard products and quality control products, 2 days at 30° C.” value was 4.88469 ng/mL and 4.96531 ng/mL and 5.14439 ng/mL; the “average concentration, Control” value is 4982.23 pg/mL. In addition, the “concentration in standard products and quality control products, Control” value in series [2] (High concentration level) is 4.87738 ng/mL and 5.14511 ng/mL and 4.9242 ng/mL. Moreover, in series [2] (Low concentration level), the Relative deviation % is −8.19%; the “average concentration, 2 days at 30° C.” value turned out to be 55.15 pg/mL; the “concentration in standard products and quality control products, 2 days at 30° C.” value was 0.05733 ng/mL and 0.05299 ng/mL and 0.05514 ng/mL; the “average concentration, Control” value was found to be 60.07 pg/mL. For the same compound, in series [2] (Low concentration level), the “concentration in standard products and quality control products, Control” value is 0.06429 ng/mL and 0.06019 ng/mL and 0.05575 ng/mL. In addition, in series [2] (Medium concentration level), the Relative deviation % was determined as 1.77%; the “average concentration, 2 days at 30° C.” value worked out at 994.89 pg/mL; the “concentration in standard products and quality control products, 2 days at 30° C.” value was 0.98928 ng/mL and 1.01881 ng/mL and 0.97658 ng/mL; the “average concentration, Control” value was 977.62 pg/mL. In series [2] (Medium concentration level), the “concentration in standard products and quality control products, Control” value is 0.97173 ng/mL and 0.97142 ng/mL and 0.98969 ng/mL.
Take `COc1cc(CCN)ccc1O` [Group 3-MT]: in series [1] (setting [3]), the Relative deviation % is given as −2.0%; the “concentration in plasma samples, Control” value was 0.38458 ng/mL and 0.38086 ng/mL and 0.37856 ng/mL; the “concentration … Accelerate” value was 0.35799 ng/mL and 0.37926 ng/mL and 0.38345 ng/mL. Moreover, in series [1] (setting [4]), the Relative deviation % is recorded as 0.6%; the “concentration in plasma samples, Control” value was 0.06389 ng/mL and 0.06483 ng/mL and 0.06347 ng/mL; the “concentration … Accelerate” value was 0.06307 ng/mL and 0.062 ng/mL and 0.06825 ng/mL. In series [2] (High concentration level), the Relative deviation % was −3.54%; the “average concentration, 2 days at 30° C.” value is recorded as 1001.8 pg/mL; the “concentration in standard products and quality control products, 2 days at 30° C.” value was 1.00258 ng/mL and 0.99459 ng/mL and 1.00823 ng/mL; the “average concentration, Control” value is 1038.58 pg/mL. The “concentration in standard products and quality control products, Control” value in series [2] (High concentration level) was 1.01486 ng/mL and 1.01865 ng/mL and 1.08223 ng/mL. Further, in series [2] (Low concentration level), the Relative deviation % was −8.93%; the “average concentration, 2 days at 30° C.” value is recorded as 10.93 pg/mL; the “concentration in standard products and quality control products, 2 days at 30° C.” value was 0.01106 ng/mL and 0.01049 ng/mL and 0.01124 ng/mL; the “average concentration, Control” value is recorded as 12 pg/mL. Further, in series [2] (Low concentration level), the “concentration in standard products and quality control products, Control” value is 0.01245 ng/mL and 0.01066 ng/mL and 0.0129 ng/mL. In addition, in series [2] (Medium concentration level), the Relative deviation % was −4.98%; the “average concentration, 2 days at 30° C.” value is recorded as 182.01 pg/mL; the “concentration in standard products and quality control products, 2 days at 30° C.” value was 0.16702 ng/mL and 0.19198 ng/mL and 0.18703 ng/mL; the “average concentration, Control” value came out at 191.55 pg/mL. In addition, in series [2] (Medium concentration level), the “concentration in standard products and quality control products, Control” value was 0.19324 ng/mL and 0.19663 ng/mL and 0.18479 ng/mL.
Regarding `CNCC(O)c1ccc(O)c(OC)c1` (stereo not drawn) [MN], in series [1] (setting [3]), the Relative deviation % was −1.2%; the “concentration in plasma samples, Control” value was 0.41672 ng/mL and 0.40668 ng/mL and 0.40997 ng/mL; the “concentration … Accelerate” value was 0.39738 ng/mL and 0.41965 ng/mL and 0.40205 ng/mL. For the same compound, in series [1] (setting [4]), the Relative deviation % amounted to 1.9%; the “concentration in plasma samples, Control” value is 0.07592 ng/mL and 0.07977 ng/mL and 0.07321 ng/mL; the “concentration … Accelerate” value is 0.0778 ng/mL and 0.07674 ng/mL and 0.07872 ng/mL. Moreover, in series [2] (High concentration level), the Relative deviation % is 0.61%; the “average concentration, 2 days at 30° C.” value is recorded as 984.35 pg/mL; the “concentration in standard products and quality control products, 2 days at 30° C.” value is 1.00342 ng/mL and 0.93428 ng/mL and 1.01536 ng/mL; the “average concentration, Control” value is 978.42 pg/mL. The “concentration in standard products and quality control products, Control” value in series [2] (High concentration level) was 1.00662 ng/mL and 0.97242 ng/mL and 0.9562 ng/mL. For the same compound, in series [2] (Low concentration level), the Relative deviation % was found to be 2.69%; the “average concentration, 2 days at 30° C.” value is on record as 12.16 pg/mL; the “concentration in standard products and quality control products, 2 days at 30° C.” value is 0.01233 ng/mL and 0.01302 ng/mL and 0.01113 ng/mL; the “average concentration, Control” value stood at 11.84 pg/mL. Further, in series [2] (Low concentration level), the “concentration in standard products and quality control products, Control” value was 0.01265 ng/mL and 0.01291 ng/mL and 0.00997 ng/mL. Also, in series [2] (Medium concentration level), the Relative deviation % was −1.18%; the “average concentration, 2 days at 30° C.” value was 198.93 pg/mL; the “concentration in standard products and quality control products, 2 days at 30° C.” value is 0.20299 ng/mL and 0.20812 ng/mL and 0.18568 ng/mL; the “average concentration, Control” value is recorded as 201.31 pg/mL. The “concentration in standard products and quality control products, Control” value in series [2] (Medium concentration level) is 0.21281 ng/mL and 0.1969 ng/mL and 0.19422 ng/mL.
